Earlier results on one molecule are cited in US11154520B2, “Combination therapy for metastatic cancer” (General Oncology, Inc., priority 2015, dated 2021).

For the data set the following is noted: decomposes intravascularly within seconds to 2,3-diketogulonic acid.

`O=C1O[C@H]([C@@H](O)CO)C(=O)C1=O` [DHA, (5R)-5-[(1S)-1,2-dihydroxyethyl]oxolane-2,3,4-trione]: the stability in blood entry is “unstable”.
